Patent US3983239A, “Hexahydro-γ-carboline derivatives and their salts” (priority 1974, dated 1976)
Read-outs that look alike come from different tables or passages of the source.

Legend:
[1] = system: methamphetamine-induced stereotypy; test: Potentiation of methamphetamine-induced stereotypy; type: in vivo, male Wistar HLA rats; set-up: key: ---: Marked antagonism; --: Moderate antagonism; -: Slight antagonism; 0: No interaction; +: Slight potentiation; ++: Moderate potentiation; +++: Marked potentiation; details: methamphetamine 2 mg/kg i.p.
Protocol: 1. Potentiation of methamphetamine-induced stereotypy
This test was carried out by a modified method of R. T. Naylor (Life Sci., Vol. 10, page 909, 1971).
To male Wistar HLA rats, weighing 200 to 250 g (each group: 6 rats), were intraperitoneally administered the compounds to be tested. After 20 minutes, methamphetamine (2 mg/kg) was intraperitoneally administered to the test animals, and then the appeared stereotypy was observed. The effects of the test compounds were evaluated by the intensity of the stereotypy and the termination thereof.

locomotion [2] = test: Inhibiting activity of locomotion, mice (Animex method); type: in vivo; details: Mus musculus, po, read-out: ED50 value, inhibiting activity of locomotion
self-stimulation = test: Inhibiting activity of self-stimulation, rats; type: in vivo; details: Rattus norvegicus, po, read-out: ED50 value, inhibiting activity of self-stimulation
Text: 8) J. Olds et al; J. Comp. Physiol. Psychol., Vol. 47, page

muscle relaxant activity = test: Muscle relaxant activity, rats; type: in vivo; details: Rattus norvegicus, read-out: ED50 value, muscle relaxant activity
catalepsy = test: Cataleptogenic activity, rats; type: in vivo; details: Rattus norvegicus, po, read-out: ED50 value, cataleptogenic activity
Text: The compounds of the present invention show the same central nervous system depressing pattern as the existing neuroleptics, such as an inhibiting activity of locomotion, an inhibiting activity of conditioned avoidance response, a cataleptogenic activity, a muscle relaxant activity, an inhibiting activity of self-stimulation, and an anti-methamphetamine activity in terms of locomotor activity.

locomotion [3] = test: Inhibiting activity of locomotion, rats (Open-field method); type: in vivo; details: Rattus norvegicus, read-out: ED50 value, inhibiting activity of locomotion
Text: 3) Open-field method [C.S. Hall; J. Comp. Physiol. Psychol.

Acute toxicity, mice = details: mouse, in vivo; for LD50 at 96 h: observed 4 days
Text: (§1) Male and female STD-dd Y mice, weighing 20 to 22 g (each group: 10 mice) and male Wistar HLA rats, weighing 250 to 300 g (each group: 10 to 20 rats) were used.

[4] = system: conditioned avoidance response; test: Inhibiting activity of conditioned avoidance response, mice; type: in vivo; details: Mus musculus, po, read-out: ED50 value, inhibiting activity of conditioned avoidance response
[5] = system: conditioned avoidance response; test: Inhibiting activity of conditioned avoidance response, rats (Shuttle box method); type: in vivo; details: Rattus norvegicus, po, read-out: ED50 value, inhibiting activity of conditioned avoidance response
Acute toxicity, rats = details: rat, in vivo, male, observed 4 days
Text: as §1

SMILES: CCN1c2ccc(C)cc2C2CN(CCCC(=O)c3ccc(F)cc3)CCC21.Cl.Cl (stereo not shown) [D, 5-Ethyl-8-methyl-2-[γ-(p-fluorobenzoyl)propyl]-2,3,4,4a,5,9b-hexahydro-1H-pyrido[4,3-b]indole dihydrochloride]
- Stereotypy Intensity ([1]; 1.0 mg/kg i.p.): 0
- Stereotypy Termination ([1]; 1.0 mg/kg i.p.): 0
- Stereotypy Intensity ([1]; 2.0 mg/kg i.p.): 0
- Stereotypy Termination ([1]; 2.0 mg/kg i.p.): 0
- Stereotypy Intensity ([1]; 5.0 mg/kg i.p.): +
- Stereotypy Termination ([1]; 5.0 mg/kg i.p.): ++
- Stereotypy Intensity ([1]; 10.0 mg/kg i.p.): +++
- Stereotypy Termination ([1]; 10.0 mg/kg i.p.): +++

SMILES: O=C(CCCN1CCC(O)(c2ccc(Cl)cc2)CC1)c1ccc(F)cc1 [Haloperidol]
- Stereotypy Intensity ([1]; 0.1 mg/kg i.p.): 0
- Stereotypy Termination ([1]; 0.1 mg/kg i.p.): -
- Stereotypy Intensity ([1]; 0.2 mg/kg i.p.): -
- Stereotypy Termination ([1]; 0.2 mg/kg i.p.): --
- Stereotypy Intensity ([1]; 0.5 mg/kg i.p.): -- -
- Stereotypy Termination ([1]; 0.5 mg/kg i.p.): --
- Stereotypy Intensity ([1]; 1.0 mg/kg i.p.): ---
- Stereotypy Termination ([1]; 1.0 mg/kg i.p.): --

SMILES: Cc1ccc2[nH]c3c(c2c1)CN(CCCC(=O)c1ccc(F)cc1)CC3.Cl [compound 1, 8-Methyl-2-[γ-(p-fluorobenzoyl)propyl]-2,3,4,5-tetrahydro-1H-pyrido[4,3-b]indole hydrochloride]
- Stereotypy Intensity ([1]; 1.0 mg/kg i.p.): 0
- Stereotypy Termination ([1]; 1.0 mg/kg i.p.): 0
- Stereotypy Intensity ([1]; 2.0 mg/kg i.p.): 0
- Stereotypy Termination ([1]; 2.0 mg/kg i.p.): 0
- Stereotypy Intensity ([1]; 5.0 mg/kg i.p.): 0
- Stereotypy Termination ([1]; 5.0 mg/kg i.p.): 0
- Stereotypy Intensity ([1]; 10.0 mg/kg i.p.): 0
- Stereotypy Termination ([1]; 10.0 mg/kg i.p.): 0

SMILES: CCc1ccc2c(c1)C1CN(CCCC(=O)c3ccc(F)cc3)CCC1N2.Cl.Cl (stereo not shown) [B, 8-Ethyl-2-[γ-(p-fluorobenzoyl)propyl]-2,3,4,4a,5,9b-hexahydro-1H-pyrido[4,3-b]indole dihydrochloride]
- Stereotypy Intensity ([1]; 2.0 mg/kg i.p.): +
- Stereotypy Termination ([1]; 2.0 mg/kg i.p.): +
- Stereotypy Intensity ([1]; 5.0 mg/kg i.p.): +++
- Stereotypy Termination ([1]; 5.0 mg/kg i.p.): +++
- Stereotypy Intensity ([1]; 10.0 mg/kg i.p.): +++
- Stereotypy Termination ([1]; 10.0 mg/kg i.p.): +++

SMILES: Cl.Cl.O=C(CCCN1CCC2Nc3ccccc3C2C1)c1ccc(F)cc1 (stereo not shown) [compound 2, 2-[γ-(p-Fluorobenzoyl)propyl]-2,3,4,4a,5,9b-hexahydro-1H-pyrido[4,3-b]indole dihydrochloride]
- Stereotypy Intensity ([1]; 1.0 mg/kg i.p.): 0
- Stereotypy Termination ([1]; 1.0 mg/kg i.p.): 0
- Stereotypy Intensity ([1]; 2.0 mg/kg i.p.): 0
- Stereotypy Termination ([1]; 2.0 mg/kg i.p.): 0
- Stereotypy Intensity ([1]; 5.0 mg/kg i.p.): 0
- Stereotypy Termination ([1]; 5.0 mg/kg i.p.): 0
- Stereotypy Intensity ([1]; 10.0 mg/kg i.p.): -
- Stereotypy Termination ([1]; 10.0 mg/kg i.p.): 0

SMILES: CN(C)CCCN1c2ccccc2Sc2ccc(Cl)cc21 [Chlorpromazine]
- ED50 (locomotion [2]): 6.34 mg/kg
- ED50 (self-stimulation): 7.04 mg/kg
- Stereotypy Intensity ([1]; 2.0 mg/kg i.p.): 0
- Stereotypy Termination ([1]; 2.0 mg/kg i.p.): 0
- Stereotypy Intensity ([1]; 5.0 mg/kg i.p.): --
- Stereotypy Termination ([1]; 5.0 mg/kg i.p.): +
- Stereotypy Intensity ([1]; 10.0 mg/kg i.p.): ---
- Stereotypy Termination ([1]; 10.0 mg/kg i.p.): ---
- ED50 (muscle relaxant activity; ip): 2.07 mg/kg
- ED50 (muscle relaxant activity; po): 4.38 mg/kg
- ED50 (catalepsy): 16.1 mg/kg
- ED50 (locomotion [3]; ip): 2.41 mg/kg
- ED50 (locomotion [3]; po): 9.88 mg/kg
- LD50 at 168 h (Acute toxicity, mice; po, male, observed 7 days): 476 mg/kg
- ED50 [4]: 5.65 mg/kg
- ED50 [5]: 7.04 mg/kg

SMILES: Cc1ccc2c(c1)C1CN(CCCC(=O)c3ccc(F)cc3)CCC1N2C.Cl.Cl (stereo not shown) [C, 5,8-Dimethyl-2-[γ-(p-fluorobenzoyl)propyl]-2,3,4,4a,5,9b-hexahydro-1H-pyrido[4,3-b]indole dihydrochloride]
- Stereotypy Intensity ([1]; 1.0 mg/kg i.p.): 0
- Stereotypy Termination ([1]; 1.0 mg/kg i.p.): 0
- Stereotypy Intensity ([1]; 2.0 mg/kg i.p.): 0
- Stereotypy Termination ([1]; 2.0 mg/kg i.p.): 0
- Stereotypy Intensity ([1]; 5.0 mg/kg i.p.): ++
- Stereotypy Termination ([1]; 5.0 mg/kg i.p.): ++
- Stereotypy Intensity ([1]; 10.0 mg/kg i.p.): ++
- Stereotypy Termination ([1]; 10.0 mg/kg i.p.): +++

SMILES: CN1CCN(C2=Nc3cc(Cl)ccc3Nc3ccccc32)CC1 [Clozapine, 8-chloro-11-(4-methyl-1-piperazinyl)-5H-dibenzo[b,e][1,4]-diazepine]
- ED50 (locomotion [2]; mice, p.o.): 7.5 mg/kg
- ED50 (self-stimulation; rats, p.o.): 61.8 mg/kg
- LD50 at 96 h (Acute toxicity, rats; iv): 42 mg/kg
- LD50 at 96 h (Acute toxicity, rats; po): 251 mg/kg
- LD50 at 96 h (Acute toxicity, rats; sc): 272 mg/kg
- ED50 (muscle relaxant activity; ip, rats, i.p.): 5.41 mg/kg
- ED50 (muscle relaxant activity; po, rats, p.o.): 28.1 mg/kg
- ED50 (catalepsy; rats, p.o.): > 100 mg/kg
- ED50 (locomotion [3]; ip, rats, i.p.): 5.54 mg/kg
- ED50 (locomotion [3]; po, rats, p.o.): 27.4 mg/kg
- LD50 at 96 h (Acute toxicity, mice; iv, male): 37 mg/kg
- LD50 at 96 h (Acute toxicity, mice; po, female): 212 mg/kg
- LD50 at 96 h (Acute toxicity, mice; po, male): 202 mg/kg
- LD50 at 96 h (Acute toxicity, mice; sc, male): 194 mg/kg
- ED50 ([4]; mice, p.o.): 9.75 mg/kg
- ED50 ([5]; rats, p.o.): 34.7 mg/kg

SMILES: COc1ccc2c(c1)C1CN(CCCC(=O)c3ccc(F)cc3)CCC1N2.Cl.Cl (stereo not shown) [compound 4, 8-Methoxy-2-[γ-(p-fluorobenzoyl)propyl]-2,3,4,4a,5,9b-hexahydro-1H-pyrido[4,3-b]indole dihydrochloride]
- Stereotypy Intensity ([1]; 1.0 mg/kg i.p.): 0
- Stereotypy Termination ([1]; 1.0 mg/kg i.p.): 0
- Stereotypy Intensity ([1]; 2.0 mg/kg i.p.): 0
- Stereotypy Termination ([1]; 2.0 mg/kg i.p.): 0
- Stereotypy Intensity ([1]; 5.0 mg/kg i.p.): 0
- Stereotypy Termination ([1]; 5.0 mg/kg i.p.): 0
- Stereotypy Intensity ([1]; 10.0 mg/kg i.p.): --
- Stereotypy Termination ([1]; 10.0 mg/kg i.p.): 0

SMILES: Cl.Cl.O=C(CCCN1CCC2Nc3ccc(F)cc3C2C1)c1ccc(F)cc1 (stereo not shown) [compound 3, 8-Fluoro-2-[γ-(p-fluorobenzoyl)propyl]-2,3,4,4a,5,9b-hexahydro-1H-pyrido[4,3-b]indole dihydrochloride]
- Stereotypy Intensity ([1]; 1.0 mg/kg i.p.): 0
- Stereotypy Termination ([1]; 1.0 mg/kg i.p.): 0
- Stereotypy Intensity ([1]; 2.0 mg/kg i.p.): 0
- Stereotypy Termination ([1]; 2.0 mg/kg i.p.): 0
- Stereotypy Intensity ([1]; 5.0 mg/kg i.p.): -
- Stereotypy Termination ([1]; 5.0 mg/kg i.p.): -
- Stereotypy Intensity ([1]; 10.0 mg/kg i.p.): --
- Stereotypy Termination ([1]; 10.0 mg/kg i.p.): --
